Assay results from US20180243273A1, “Composition for Intravesical Administration for Treating Bladder Pain” (priority 2017, published 2018).

Assay: Storage of compositions with/without nitrogen-gassing and ascorbic acid, assay and impurities
Assay type: physicochemical
Settings: phosphate buffer
Description: A possible beneficial effect of nitrogen-gassing during manufacturing and storage was assessed. Selected compositions were manufactured by dissolution of API via stirring for 24 h and stored after treatment with/without nitrogen at 25° C. or 6° C. for up to 28 days.
The manufactured batches consisted of phosphate buffer and vitamin E TPGS and were compared to compositions containing ascorbic acid 1%, additionally. API was used at 0.01 wt.-%, 0.02 wt.-% or 0.04 w.-%. The compositions were saturated with API, where 10 mg, 20 mg or 40 mg were dissolved in 100 g buffer containing 0.5 wt.-%, wt.-1% or 2 wt.-% vitamin E TPGS, respectively. The compositions were transferred into polystyrene bottles and stored at 25° C. or 6° C. A part of the compositions was treated with nitrogen during manufacturing and gassed with nitrogen prior to sealing (see FIG. 18). The compositions were tested for assay and purity of API after manufacturing, as well as after 7, 14 and 28 days.

[1] = vitamin E TPGS 0.5%, Asc. 1%, N2 +, API 0.01%, 6° C., t = 7 d
[2] = vitamin E TPGS 0.5%, Asc. 1%, N2 +, API 0.01%, 6° C., t = 14 d
[3] = vitamin E TPGS 0.5%, Asc. 1%, N2 +, API 0.01%, 6° C., t = 28 d
[4] = vitamin E TPGS 0.5%, Asc. 1%, N2 +, API 0.01%, 25° C., t = 7 d
[5] = vitamin E TPGS 0.5%, Asc. 1%, N2 +, API 0.01%, 25° C., t = 14 d
[6] = vitamin E TPGS 0.5%, Asc. 1%, N2 +, API 0.01%, 25° C., t = 28 d
[7] = vitamin E TPGS 0.5%, Asc. 1%, N2 +, API 0.01%, t = 0
[8] = vitamin E TPGS 0.5%, Asc. 1%, N2 −, API 0.01%, 6° C., t = 7 d
[9] = vitamin E TPGS 0.5%, Asc. 1%, N2 −, API 0.01%, 6° C., t = 14 d
[10] = vitamin E TPGS 0.5%, Asc. 1%, N2 −, API 0.01%, 6° C., t = 28 d
[11] = vitamin E TPGS 0.5%, Asc. 1%, N2 −, API 0.01%, 25° C., t = 7 d
[12] = vitamin E TPGS 0.5%, Asc. 1%, N2 −, API 0.01%, 25° C., t = 14 d
[13] = vitamin E TPGS 0.5%, Asc. 1%, N2 −, API 0.01%, 25° C., t = 28 d
[14] = vitamin E TPGS 0.5%, Asc. 1%, N2 −, API 0.01%, t = 0
[15] = vitamin E TPGS 0.5%, no Asc., N2 +, API 0.01%, 6° C., t = 28 d
[16] = vitamin E TPGS 0.5%, no Asc., N2 +, API 0.01%, 25° C., t = 7 d
[17] = vitamin E TPGS 0.5%, no Asc., N2 +, API 0.01%, 25° C., t = 14 d
[18] = vitamin E TPGS 0.5%, no Asc., N2 +, API 0.01%, t = 0
[19] = vitamin E TPGS 0.5%, no Asc., N2 −, API 0.01%, 6° C., t = 7 d
[20] = vitamin E TPGS 0.5%, no Asc., N2 −, API 0.01%, 6° C., t = 14 d
[21] = vitamin E TPGS 0.5%, no Asc., N2 −, API 0.01%, 6° C., t = 28 d
[22] = vitamin E TPGS 0.5%, no Asc., N2 −, API 0.01%, 25° C., t = 7 d
[23] = vitamin E TPGS 0.5%, no Asc., N2 −, API 0.01%, 25° C., t = 14 d
[24] = vitamin E TPGS 0.5%, no Asc., N2 −, API 0.01%, 25° C., t = 28 d
[25] = vitamin E TPGS 0.5%, no Asc., N2 −, API 0.01%, t = 0
[26] = vitamin E TPGS 1%, Asc. 1%, N2 +, API 0.02%, 6° C., t = 7 d
[27] = vitamin E TPGS 1%, Asc. 1%, N2 +, API 0.02%, 6° C., t = 14 d
[28] = vitamin E TPGS 1%, Asc. 1%, N2 +, API 0.02%, 6° C., t = 28 d
[29] = vitamin E TPGS 1%, Asc. 1%, N2 +, API 0.02%, 25° C., t = 7 d
[30] = vitamin E TPGS 1%, Asc. 1%, N2 +, API 0.02%, 25° C., t = 14 d
[31] = vitamin E TPGS 1%, Asc. 1%, N2 +, API 0.02%, 25° C., t = 28 d
[32] = vitamin E TPGS 1%, Asc. 1%, N2 +, API 0.02%, t = 0
[33] = vitamin E TPGS 1%, no Asc., N2 +, API 0.02%, 6° C., t = 7 d
[34] = vitamin E TPGS 1%, no Asc., N2 +, API 0.02%, 6° C., t = 14 d
[35] = vitamin E TPGS 1%, no Asc., N2 +, API 0.02%, 6° C., t = 28 d
[36] = vitamin E TPGS 1%, no Asc., N2 +, API 0.02%, 25° C., t = 7 d
[37] = vitamin E TPGS 1%, no Asc., N2 +, API 0.02%, 25° C., t = 14 d

SMILES: CN(C)[C@]1(c2cccc(F)c2)CC[C@]2(CC1)c1[nH]c3ccccc3c1CCN2C(=O)/C=C/c1ccccc1 [API, cis-(E)-4-(3-fluorophenyl)-2′,3′,4′,9′-tetrahydro-N,N-dimethyl-2′-(1-oxo-3-phenyl-2-propenyl)-spiro[cyclohexane-1,1′[1H]-pyrido[3,4-b]indol]-4-amine]
- Assay [1]: 65.65 µg/mL
- Impurities [1]: 0.65 % (a/a)
- Assay [2]: 65.65 µg/mL
- Impurities [2]: 29.21 % (a/a)
- Assay [3]: 65.82 µg/mL
- Impurities [3]: 0.70 % (a/a)
- Assay [4]: 63.63 µg/mL
- Impurities [4]: 1.00 % (a/a)
- Assay [5]: 61.53 µg/mL
- Impurities [5]: 1.74 % (a/a)
- Assay [6]: 63.95 µg/mL
- Impurities [6]: 1.82 % (a/a)
- Assay [7]: 66.61 µg/mL
- Impurities [7]: 0.58 % (a/a)
- Assay [8]: 66.21 µg/mL
- Impurities [8]: 0.70 % (a/a)
- Assay [9]: 66.54 µg/mL
- Impurities [9]: 0.83 % (a/a)
- Assay [10]: 66.15 µg/mL
- Impurities [10]: 0.70 % (a/a)
- Assay [11]: 65.66 µg/mL
- Impurities [11]: 0.53 % (a/a)
- Assay [12]: 65.27 µg/mL
- Impurities [12]: 1.09 % (a/a)
- Assay [13]: 61.46 µg/mL
- Impurities [13]: 1.36 % (a/a)
- Assay [14]: 66.81 µg/mL
- Impurities [14]: 0.66 % (a/a)
- Assay [15]: 49.80 µg/mL
- Impurities [15]: 0.54 % (a/a)
- Assay [16]: 49.76 µg/mL
- Impurities [16]: 0.36 % (a/a)
- Assay [17]: 49.65 µg/mL
- Impurities [17]: 1.19 % (a/a)
- Assay [18]: 49.49 µg/mL
- Impurities [18]: 0.71 % (a/a)
- Assay [19]: 50.43 µg/mL
- Impurities [19]: 0.63 % (a/a)
- Assay [20]: 50.71 µg/mL
- Impurities [20]: 0.94 % (a/a)
- Assay [21]: 50.27 µg/mL
- Impurities [21]: 0.52 % (a/a)
- Assay [22]: 50.56 µg/mL
- Impurities [22]: 0.45 % (a/a)
- Assay [23]: 50.23 µg/mL
- Impurities [23]: 1.13 % (a/a)
- Assay [24]: 50.36 µg/mL
- Impurities [24]: 1.06 % (a/a)
- Assay [25]: 50.22 µg/mL
- Impurities [25]: 0.68 % (a/a)
- Assay [26]: 109.93 µg/mL
- Impurities [26]: 0.73 % (a/a)
- Assay [27]: 110.67 µg/mL
- Impurities [27]: 0.90 % (a/a)
- Assay [28]: 110.25 µg/mL
- Impurities [28]: 0.91 % (a/a)
- Assay [29]: 107.03 µg/mL
- Impurities [29]: 1.04 % (a/a)
- Assay [30]: 106.77 µg/mL
- Impurities [30]: 1.27 % (a/a)
- Assay [31]: 93.34 µg/mL
- Impurities [31]: 1.79 % (a/a)
- Assay [32]: 110.99 µg/mL
- Impurities [32]: 0.62 % (a/a)
- Assay [33]: 93.47 µg/mL
- Impurities [33]: 0.64 % (a/a)
- Assay [34]: 93.72 µg/mL
- Impurities [34]: 0.75 % (a/a)
- Assay [35]: 93.93 µg/mL
- Impurities [35]: 0.58 % (a/a)
- Assay [36]: 93.61 µg/mL
- Impurities [36]: 0.69 % (a/a)
- Assay [37]: 93.28 µg/mL
- Impurities [37]: 0.86 % (a/a)
